Data reported in paper PMC10816276 (International Journal of Molecular Sciences, 2024).

Target: T1, Mushroom tyrosinase (mTyr) (Agaricus bisporus, UniProt C7FF04)
T1 construct: purchased Sigma-Aldrich
Assay: mTyr inhibition kinetics (Lineweaver-Burk)
Type: biochemical
Method: The mTyr inhibition kinetics of 6′-O-caffeoylarbutin were studied using a method similar to the previously reported procedure for determining the inhibitory activity of 6′-O-caffeoylarbutin on mTyr.
I. Enzyme inhibition mechanism study. For the investigation of the enzyme inhibition mechanism, L-DOPA was used at a final concentration of 0.5 mmol·L^−1, and the mTyr was set at final concentrations of 8.1, 32.5, and 65.0 U·mL^−1. The rate of change of optical density (OD) at 490 nm was measured for various concentrations of 6′-O-caffeoylarbutin (ranging from 10 to 100 μM). A graph was plotted to depict the relationship between the rate of change of OD values and the mTyr concentration under the influence of different concentrations of 6′-O-caffeoylarbutin.
II. Enzyme inhibition type study. To determine the enzyme inhibition type, L-DOPA was used with final concentrations of 0.2, 0.5, 0.6, and 0.8 mmol·L^−1, while mTyr was used at a final concentration of 31.25 U·mL^−1. The rate of change of OD at 490 nm was measured for various concentrations of 6′-O-caffeoylarbutin (ranging from 0 to 100 μM). A reciprocal plot was generated using the rate of change of OD values and L-DOPA concentration. The inhibition constants were obtained based on the inhibition type of 6′-O-caffeoylarbutin on mTyr using quadratic plotting of the 6′-O-caffeoylarbutin concentration and the slope and vertical intercept of the line in the Lineweaver_Burk double reciprocal plot and Dixon plot.

T1 sequence (C7FF04 1-392): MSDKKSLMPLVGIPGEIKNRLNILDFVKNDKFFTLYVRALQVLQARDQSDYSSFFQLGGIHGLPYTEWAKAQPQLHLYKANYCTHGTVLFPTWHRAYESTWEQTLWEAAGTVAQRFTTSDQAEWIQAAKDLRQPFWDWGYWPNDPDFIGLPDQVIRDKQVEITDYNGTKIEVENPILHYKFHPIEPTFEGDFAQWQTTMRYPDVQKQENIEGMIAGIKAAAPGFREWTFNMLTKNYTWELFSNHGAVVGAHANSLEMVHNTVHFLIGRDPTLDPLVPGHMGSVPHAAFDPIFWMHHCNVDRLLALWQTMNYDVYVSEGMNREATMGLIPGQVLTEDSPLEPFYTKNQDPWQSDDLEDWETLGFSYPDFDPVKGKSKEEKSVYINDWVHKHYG

O=C(C=Cc1ccc(O)c(O)c1)OCC1OC(Oc2ccc(O)cc2)C(O)C(O)C1O (stereo not drawn) [6′-O-caffeoylarbutin]
inhibition type on mTyr (Lineweaver-Burk, substrate L-DOPA): competitive inhibition
Ki (binding to free enzyme, substrate L-DOPA, read-out: inhibition constant (Ki) on mTyr): 1.34 ± 0.92 µM
reversibility of mTyr inhibition (rate vs enzyme concentration, 10-100 μM inhibitor, L-DOPA 0.5 mmol·L^−1): reversible
